From ChEMBL document CHEMBL4346705, “(±)-trans-Dihydronarciclasine and (±)-trans-dihydrolycoricidine analogues modified in their ring A: Evaluation of their anticancer activity and a SAR study” (2019)

Legend:
Format in all cases: functional
CCRF-CEM = assay: Antiproliferative activity against human CCRF-CEM cells assessed as cell viability at 10^-5 M incubated for 48 hrs by sulforhodamine B assay relative to control; conditions: read-out: Activity
MOLT-4 = assay: Antiproliferative activity against human MOLT4 cells assessed as cell viability at 10^-5 M incubated for 48 hrs by sulforhodamine B assay relative to control; conditions: MOLT-4, 48 h, read-out: Activity
SR = assay: Antiproliferative activity against human SR cells assessed as cell viability at 10^-5 M incubated for 48 hrs by sulforhodamine B assay relative to control; conditions: read-out: Activity
EKVX = assay: Antiproliferative activity against human EKVX cells assessed as cell viability at 10^-5 M incubated for 48 hrs by sulforhodamine B assay relative to control; conditions: read-out: Activity
NCI-H226 = assay: Antiproliferative activity against human NCI-H226 cells assessed as cell viability at 10^-5 M incubated for 48 hrs by sulforhodamine B assay relative to control; conditions: NCI-H226, 48 h, read-out: Activity
NCI-H322M = assay: Antiproliferative activity against human NCI-H322M cells assessed as cell viability at 10^-5 M incubated for 48 hrs by sulforhodamine B assay relative to control; conditions: read-out: Activity
NCI-H460 = assay: Antiproliferative activity against human NCI-H460 cells assessed as cell viability at 10^-5 M incubated for 48 hrs by sulforhodamine B assay relative to control; conditions: NCI-H460, 48 h, read-out: Activity
HCC 2998 = assay: Antiproliferative activity against human HCC2998 cells assessed as cell viability at 10^-5 M incubated for 48 hrs by sulforhodamine B assay relative to control; conditions: HCC 2998, 48 h, read-out: Activity
SW-620 = assay: Antiproliferative activity against human SW620 cells assessed as cell viability at 10^-5 M incubated for 48 hrs by sulforhodamine B assay relative to control; conditions: SW-620, 48 h, read-out: Activity
SF-268 = assay: Antiproliferative activity against human SF268 cells assessed as cell viability at 10^-5 M incubated for 48 hrs by sulforhodamine B assay relative to control; conditions: SF-268, 48 h, read-out: Activity
SF-295 = assay: Antiproliferative activity against human SF295 cells assessed as cell viability at 10^-5 M incubated for 48 hrs by sulforhodamine B assay relative to control; conditions: SF-295, 48 h, read-out: Activity
SF-539 = assay: Antiproliferative activity against human SF539 cells assessed as cell viability at 10^-5 M incubated for 48 hrs by sulforhodamine B assay relative to control; conditions: SF-539, 48 h, read-out: Activity
SNB-19 = assay: Antiproliferative activity against human SNB19 cells assessed as cell viability at 10^-5 M incubated for 48 hrs by sulforhodamine B assay relative to control; conditions: SNB-19, 48 h, read-out: Activity
U-251 = assay: Antiproliferative activity against human U251 cells assessed as cell viability at 10^-5 M incubated for 48 hrs by sulforhodamine B assay relative to control; conditions: U-251, 48 h, read-out: Activity
LOX IMVI = assay: Antiproliferative activity against human LOXIMVI cells assessed as cell viability at 10^-5 M incubated for 48 hrs by sulforhodamine B assay relative to control; conditions: read-out: Activity
Malme-3M = assay: Antiproliferative activity against human MALME-3M cells assessed as cell viability at 10^-5 M incubated for 48 hrs by sulforhodamine B assay relative to control; conditions: read-out: Activity
M14 = assay: Antiproliferative activity against human M14 cells assessed as cell viability at 10^-5 M incubated for 48 hrs by sulforhodamine B assay relative to control; conditions: M14, 48 h, read-out: Activity
SK-MEL-2 = assay: Antiproliferative activity against human SK-MEL-2 cells assessed as cell viability at 10^-5 M incubated for 48 hrs by sulforhodamine B assay relative to control; conditions: SK-MEL-2, 48 h, read-out: Activity
SK-MEL-5 = assay: Antiproliferative activity against human SK-MEL-5 cells assessed as cell viability at 10^-5 M incubated for 48 hrs by sulforhodamine B assay relative to control; conditions: SK-MEL-5, 48 h, read-out: Activity
IGROV-1 = assay: Antiproliferative activity against human IGROV1 cells assessed as cell viability at 10^-5 M incubated for 48 hrs by sulforhodamine B assay relative to control; conditions: IGROV-1, 48 h, read-out: Activity
OVCAR-4 = assay: Antiproliferative activity against human OVCAR4 cells assessed as cell viability at 10^-5 M incubated for 48 hrs by sulforhodamine B assay relative to control; conditions: OVCAR-4, 48 h, read-out: Activity
OVCAR-5 = assay: Antiproliferative activity against human OVCAR5 cells assessed as cell viability at 10^-5 M incubated for 48 hrs by sulforhodamine B assay relative to control; conditions: OVCAR-5, 48 h, read-out: Activity
SK-OV-3 = assay: Antiproliferative activity against human SKOV3 cells assessed as cell viability at 10^-5 M incubated for 48 hrs by sulforhodamine B assay relative to control; conditions: SK-OV-3, 48 h, read-out: Activity
A498 = assay: Antiproliferative activity against human A498 cells assessed as cell viability at 10^-5 M incubated for 48 hrs by sulforhodamine B assay relative to control; conditions: A498, 48 h, read-out: Activity
RXF 393 = assay: Antiproliferative activity against human RXF393 cells assessed as cell viability at 10^-5 M incubated for 48 hrs by sulforhodamine B assay relative to control; conditions: RXF 393, 48 h, read-out: Activity
TK-10 = assay: Antiproliferative activity against human TK10 cells assessed as cell viability at 10^-5 M incubated for 48 hrs by sulforhodamine B assay relative to control; conditions: TK-10, 48 h, read-out: Activity
DU-145 = assay: Antiproliferative activity against human DU145 cells assessed as cell viability at 10^-5 M incubated for 48 hrs by sulforhodamine B assay relative to control; conditions: DU-145, 48 h, read-out: Activity
MCF7 = assay: Antiproliferative activity against human MCF7 cells assessed as cell viability at 10^-5 M incubated for 48 hrs by sulforhodamine B assay relative to control; conditions: MCF7, 48 h, read-out: Activity
Hs-578T = assay: Antiproliferative activity against human Hs 578T cells assessed as cell viability at 10^-5 M incubated for 48 hrs by sulforhodamine B assay relative to control; conditions: read-out: Activity
BT-549 = assay: Antiproliferative activity against human BT549 cells assessed as cell viability at 10^-5 M incubated for 48 hrs by sulforhodamine B assay relative to control; conditions: BT-549, 48 h, read-out: Activity
T47D = assay: Antiproliferative activity against human T47D cells assessed as cell viability at 10^-5 M incubated for 48 hrs by sulforhodamine B assay relative to control; conditions: read-out: Activity
MDA-MB-468 = assay: Antiproliferative activity against human MDA-MB-468 cells assessed as cell viability at 10^-5 M incubated for 48 hrs by sulforhodamine B assay relative to control; conditions: MDA-MB-468, 48 h, read-out: Activity

SMILES | viability at 10 µM (CCRF-CEM) [%] | viability at 10 µM (MOLT-4) [%] | viability at 10 µM (SR) [%] | viability at 10 µM (EKVX) [%] | viability at 10 µM (NCI-H226) [%] | viability at 10 µM (NCI-H322M) [%] | viability at 10 µM (NCI-H460) [%] | viability at 10 µM (HCC 2998) [%] | viability at 10 µM (SW-620) [%] | viability at 10 µM (SF-268) [%] | viability at 10 µM (SF-295) [%] | viability at 10 µM (SF-539) [%] | viability at 10 µM (SNB-19) [%] | viability at 10 µM (U-251) [%] | viability at 10 µM (LOX IMVI) [%] | viability at 10 µM (Malme-3M) [%] | viability at 10 µM (M14) [%] | viability at 10 µM (SK-MEL-2) [%] | viability at 10 µM (SK-MEL-5) [%] | viability at 10 µM (IGROV-1) [%] | further results
COc1cc2c(c(OC)c1OC)C(=O)NC1C2CC(O)C(O)C1O (racemic) | 104 | 104 | 95.6 | 103 | 102 | 104 | 110 | 101 | 109 | 103 | 98.3 | 100 | 99 | 98.9 | 97.7 | 108 | 98.5 | 117 | 104 | 111 | viability at 10 µM (OVCAR-4): 107%; viability at 10 µM (OVCAR-5): 106%; viability at 10 µM (SK-OV-3): 99.9%; viability at 10 µM (A498): 112%; viability at 10 µM (RXF 393): 102%; viability at 10 µM (TK-10): 98.5%; viability at 10 µM (DU-145): 110%; viability at 10 µM (MCF7): 96.1%; viability at 10 µM (Hs-578T): 108%; viability at 10 µM (BT-549): 110%; viability at 10 µM (T47D): 100%; viability at 10 µM (MDA-MB-468): 102%
CCOc1c(OC)cc2c(c1OCC)C(=O)NC1C2CC(O)C(O)C1O (racemic) | 102 | 80.9 | 90.3 | 97.5 | 97.4 | 98.6 | 107 | 104 | 106 | 91.3 | 98.7 | 106 | 103 | 100 | 97.6 | 103 | 99.1 | 103 | 99.8 | 103 | viability at 10 µM (OVCAR-4): 103%; viability at 10 µM (OVCAR-5): 108%; viability at 10 µM (SK-OV-3): 105%; viability at 10 µM (A498): 110%; viability at 10 µM (RXF 393): 104%; viability at 10 µM (TK-10): 97.1%; viability at 10 µM (DU-145): 110%; viability at 10 µM (MCF7): 95.2%; viability at 10 µM (Hs-578T): 99.3%; viability at 10 µM (BT-549): 103%; viability at 10 µM (T47D): 106%; viability at 10 µM (MDA-MB-468): 98.1%
CCOc1cc2c(c(O)c1OCC)C(=O)NC1C2CC(O)C(O)C1O (racemic) | 103 | 103 | 91.7 | 99.7 | 105 | 97.6 | 113 | 101 | 112 | 96.4 | 98.7 | 102 | 96 | 98.4 | 98.5 | 102 | 100 | 109 | 102 | 109 | viability at 10 µM (OVCAR-4): 103%; viability at 10 µM (OVCAR-5): 104%; viability at 10 µM (SK-OV-3): 98.6%; viability at 10 µM (A498): 98.7%; viability at 10 µM (RXF 393): 104%; viability at 10 µM (TK-10): 99.1%; viability at 10 µM (DU-145): 105%; viability at 10 µM (MCF7): 90.9%; viability at 10 µM (Hs-578T): 89.9%; viability at 10 µM (BT-549): 100%; viability at 10 µM (T47D): 90.4%; viability at 10 µM (MDA-MB-468): 94.8%
CCOc1cc2c(c(OC)c1OCC)C(=O)NC1C2CC(O)C(O)C1O (racemic) | 96.9 | 99.3 | 95.8 | 99.1 | 99.1 | 106 | 102 | 107 | 109 | 95.4 | 102 | 102 | 97.7 | 95.4 | 98.4 | 111 | 107 | 110 | 102 | 112 | viability at 10 µM (OVCAR-4): 105%; viability at 10 µM (OVCAR-5): 109%; viability at 10 µM (SK-OV-3): 103%; viability at 10 µM (A498): 102%; viability at 10 µM (RXF 393): 105%; viability at 10 µM (TK-10): 100%; viability at 10 µM (DU-145): 106%; viability at 10 µM (MCF7): 97.6%; viability at 10 µM (Hs-578T): 99.8%; viability at 10 µM (BT-549): 101%; viability at 10 µM (T47D): 96.3%; viability at 10 µM (MDA-MB-468): 96.2%
CCOc1cc2c(c(OCC)c1OCC)C(=O)NC1C2CC(O)C(O)C1O (racemic) | 99.1 | 99.2 | 96.2 | 97.3 | 96.3 | 97.8 | 109 | 107 | 107 | 99.5 | 100 | 97 | 104 | 101 | 98.7 | 112 | 103 | 99.2 | 107 | 108 | viability at 10 µM (OVCAR-4): 105%; viability at 10 µM (OVCAR-5): 104%; viability at 10 µM (SK-OV-3): 105%; viability at 10 µM (A498): 102%; viability at 10 µM (RXF 393): 110%; viability at 10 µM (TK-10): 98.5%; viability at 10 µM (DU-145): 113%; viability at 10 µM (MCF7): 95.6%; viability at 10 µM (Hs-578T): 99.1%; viability at 10 µM (BT-549): 108%; viability at 10 µM (T47D): 100%; viability at 10 µM (MDA-MB-468): 107%
